Among the data in ChEMBL document CHEMBL2034959, “Hesperetin upregulates ABCA1 expression and promotes cholesterol efflux from THP-1 macrophages” (J Nat Prod, 2012) are Activity values, retold here.

Common to all, as to type: cell-based
The target of data set [1] is T1, Oxysterols receptor LXR-alpha (Homo sapiens) (UniProt Q13133).
T1 sequence (whole entry): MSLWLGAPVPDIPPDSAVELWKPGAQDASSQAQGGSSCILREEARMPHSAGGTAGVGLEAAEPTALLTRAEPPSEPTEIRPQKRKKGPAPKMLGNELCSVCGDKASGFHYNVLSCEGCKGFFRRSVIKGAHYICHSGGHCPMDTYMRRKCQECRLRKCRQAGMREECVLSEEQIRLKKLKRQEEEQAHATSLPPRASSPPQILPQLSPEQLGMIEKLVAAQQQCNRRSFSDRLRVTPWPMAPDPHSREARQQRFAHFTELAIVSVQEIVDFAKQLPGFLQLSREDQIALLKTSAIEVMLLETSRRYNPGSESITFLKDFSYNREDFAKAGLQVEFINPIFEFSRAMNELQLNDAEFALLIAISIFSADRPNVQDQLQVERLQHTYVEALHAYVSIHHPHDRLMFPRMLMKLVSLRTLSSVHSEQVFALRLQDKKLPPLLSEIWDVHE
As to the kind of experiment: Induction of LXRalpha enhancer activity in human THP1 cells after 24 hrs by luciferase reporter gene analysis. The note with it: THP-1.

In data set [2] the target is T1, Oxysterols receptor LXR-alpha (Homo sapiens). As to the kind of experiment: Increase in LXRalpha-mediated ABCA1 mRNA expression in human THP1 cells at 5 to 15 uM after 24 hrs by RT-PCR analysis. The note with it: THP-1.
The test system of data set [3] is THP-1. As to the kind of experiment: Cytotoxicity against human THP1 cells up to 100 uM after 24 hrs by WST8 assay. The following applies: thp-1, 24 h. Background: Formazan colour is commonly taken as a measure of viable cells.
For data set [4], the target named is T1, Oxysterols receptor LXR-alpha (Homo sapiens). As to the kind of experiment: Increase in LXRalpha-mediated ABCA1 protein expression in human THP1 cells at 5 to 15 uM after 48 hrs by Western blotting analysis. The following applies: THP-1.
For data set [5] the target is unchanged. As to the kind of experiment: Induction of LXRalpha-mediated ABCA1 promoter activity in human THP1 cells after 24 hrs by luciferase reporter gene analysis. The note with it: THP-1.
Data set [6] has as its target T2, Peroxisome proliferator-activated receptor gamma (Homo sapiens) (UniProt P37231).
T2 sequence (whole entry): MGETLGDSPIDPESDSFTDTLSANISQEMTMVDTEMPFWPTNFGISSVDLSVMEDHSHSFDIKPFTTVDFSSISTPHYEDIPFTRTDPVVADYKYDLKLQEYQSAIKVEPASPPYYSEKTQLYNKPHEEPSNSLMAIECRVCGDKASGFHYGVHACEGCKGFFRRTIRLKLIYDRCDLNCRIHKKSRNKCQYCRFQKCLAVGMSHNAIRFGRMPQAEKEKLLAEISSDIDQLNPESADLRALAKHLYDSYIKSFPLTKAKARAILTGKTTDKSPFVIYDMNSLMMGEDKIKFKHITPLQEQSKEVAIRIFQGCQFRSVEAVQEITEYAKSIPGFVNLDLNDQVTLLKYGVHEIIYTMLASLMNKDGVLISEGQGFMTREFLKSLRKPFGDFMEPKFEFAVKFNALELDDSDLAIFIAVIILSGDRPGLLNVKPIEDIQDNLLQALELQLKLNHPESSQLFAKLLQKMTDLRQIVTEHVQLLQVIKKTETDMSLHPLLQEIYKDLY
As to the kind of experiment: Induction of PPARgamma-mediated ABCA1 promoter activity in human THP1 cells after 24 hrs by luciferase reporter gene analysis. The note with it: THP-1. (A reporter such as luciferase makes a cellular process visible.)

Data set [7] concerns the target T2, Peroxisome proliferator-activated receptor gamma (Homo sapiens). As to the kind of experiment: Induction of PPARgamma enhancer activity in human THP1 cells after 24 hrs by luciferase reporter gene analysis. The following applies: THP-1.

Calls of active or inactive are those of the source. No cut-off for these calls is given here.

With `COc1ccc([C@@H]2CC(=O)c3c(O)cc(O)cc3O2)cc1O` [HESPERETIN], the Activity entry in data set [1] was “Dose-dependent effect”; in data set [3], “Non-toxic”; in data set [7] it was “Dose-dependent effect”. Also, the result in data set [2], in data set [4], in data set [5] and in data set [6] was Active.
